Experimental data reported in PMC3242765, “Inhibitors of Alphavirus Entry and Replication Identified with a Stable Chikungunya Replicon Cell Line and Virus-Based Assays” (PLoS ONE, 2011).

These molecules were tested on SFV-Rluc. Conditions: not given.

Row | Structure (SMILES) | SFV replication % left (surviving fraction, remaining percentage of SFV replication) [%]
1 | CC(C)NCC(O)COc1ccc(CC(N)=O)cc1 (stereo not shown) [Atenolol] | 44.2

Same assay, conditions: Supplementary Table 2, moderately active compounds (25 - 60% remaining), primary screen at 50 µM

Row | Structure (SMILES) | % left (remaining SFV replication) [%]
2 | O=C(c1ccccc1)c1cc2c(ccc3ccccc32)oc1=O [NC-006] | 39.9
3 | Cc1cc(=O)oc2c3c4c(cc12)CCCN4CCC3 [NC-015] | 34.6
4 | CCN(CC)c1ccc2cc(-c3nc4ccccc4[nH]3)c(=O)oc2c1 [NC-017] | 37.3
5 | O=c1c(-c2ccc(O)cc2)coc2cc(O)cc(O)c12 [NC-042] | 45.6
6 | O=C(O)c1ccc(O)cc1O [NC-055] | 32.1
7 | COc1cc(-c2oc3cc(O)cc(O)c3c(=O)c2O)ccc1O [NC-056] | 28.9
8 | CCN(CC)CCCC(C)Nc1cc(/C=C/c2ccccc2Cl)nc2cc(Cl)ccc12 (stereo not shown) [NC-066] | 45.8
9 | CC(Cc1ccc(O)c(O)c1)C(C)Cc1ccc(O)c(O)c1 (stereo not shown) [NC-071] | 35.6
10 | C[C@@H]1O[C@@H](OC[C@H]2O[C@@H](Oc3c(-c4ccc(O)c(O)c4)oc4cc(O)cc(O)c4c3=O)[C@H](O)[C@@H](O)[C@@H]2O)[C@H](O)[C@H](O)[C@H]1O [NC-090] | 44.1
11 | C=CCC(=NOS(=O)(=O)[O-])SC1OC(CO)C(O)C(O)C1O.O.[K+] (stereo not shown) [NC-096] | 47.6

Same assay, conditions: primary screening of chemical libraries; compounds tested at 50 µM

Row | Structure (SMILES) | SFV replication % left [%]
12 | COc1ccc(-c2cc(=O)c3c(O)cc(O)cc3o2)cc1 [NC-001] | 78.1
13 | O=c1cc(-c2ccccc2)oc2c1ccc1ccccc12 [NC-002] | 14.6
14 | O=c1cc(-c2ccc(O)cc2)oc2cc(O)cc(O)c12 [NC-003] | 18.0
15 | O=C1O[C@H]([C@@H](O)CO)C(O)=C1O [NC-004] | 81.4
16 | O=C(O)c1ccccc1 [NC-005] | 71.6
17 | O=C(c1ccccc1)c1cc2c(ccc3ccccc32)oc1=O [NC-006] | 39.9
18 | O=c1oc2cc(O)ccc2cc1-c1nc2ccccc2o1 [NC-007] | 21.0
19 | COc1c2ccoc2cc2oc(=O)ccc12 [NC-008] | 46.8
20 | O=C(O)/C=C/c1ccc(O)c(O)c1 [NC-010] | 98.7
21 | Oc1cc(O)c2c(c1)O[C@H](c1ccc(O)c(O)c1)[C@@H](O)C2 [NC-011] | 64.5
22 | Oc1ccccc1O [NC-012] | 58.4
23 | O=c1cc(-c2ccccc2)oc2cc(O)cc(O)c12 [NC-013] | 18.1
24 | O=C(O)/C=C/c1ccccc1O [NC-014] | 77.6
25 | Cc1cc(=O)oc2c3c4c(cc12)CCCN4CCC3 [NC-015] | 34.6
26 | CCN(CC)c1ccc2cc(-c3nc4ccccc4n3C)c(=O)oc2c1 [NC-016] | 12.3
27 | CCN(CC)c1ccc2cc(-c3nc4ccccc4[nH]3)c(=O)oc2c1 [NC-017] | 37.3
28 | O=c1ccc2ccccc2o1 [NC-018] | 68.8
29 | Oc1cc(O)c2cc(O)c(-c3ccc(O)c(O)c3)[o+]c2c1.[Cl-] [NC-019] | 24.5
30 | O=c1c(-c2ccc(O)cc2)coc2cc(O)ccc12 [NC-020] | 76.6
31 | O=c1ccc2ccc(O)c(O)c2o1 [NC-021] | 81.7
32 | CCN(CC)c1ccc2cc(C(=O)c3cccs3)c(=O)oc2c1 [NC-022] | 15.6
33 | O=C(O)c1cccc(O)c1O [NC-023] | 93.1
34 | O=C(O)c1cc(O)ccc1O [NC-024] | 127.8

Row | Structure (SMILES) | SFV replication % left [%]
35 | O=C(O)c1c(O)cccc1O [NC-025] | 118.7
36 | O=C(O)c1ccc(O)c(O)c1 [NC-026] | 124.5
37 | O=C(O)c1cc(O)cc(O)c1 [NC-027] | 6.9
38 | Cc1ccc(C)c(O)c1 [NC-029] | 84.6
39 | CN(C)c1cccc2c(S(=O)(=O)Cl)cccc12 [NC-032] | 4.6
40 | O=c1oc2c(O)c(O)cc3c(=O)oc4c(O)c(O)cc1c4c23 [NC-033] | 64.9
41 | Oc1cc(O)c2c(c1)O[C@H](c1ccc(O)c(O)c1)[C@H](O)C2 [NC-034] | 97.1
42 | O=C(O[C@@H]1Cc2c(O)cc(O)cc2O[C@@H]1c1ccc(O)c(O)c1)c1cc(O)c(O)c(O)c1 [NC-035] | 94.8
43 | Oc1cc(O)c2c(c1)O[C@H](c1cc(O)c(O)c(O)c1)[C@H](O)C2 [NC-036] | 101.9
44 | O=C(O[C@@H]1Cc2c(O)cc(O)cc2O[C@@H]1c1cc(O)c(O)c(O)c1)c1cc(O)c(O)c(O)c1 [NC-037] | 155.3
45 | CCOc1ccc2c(c1)C(C)=CC(C)(C)N2 [NC-038] | 96.4
46 | COc1cc(/C=C/C(=O)O)ccc1O [NC-039] | 63.4
47 | O=c1cc(-c2ccccc2)oc2ccccc12 [NC-040] | 52.2
48 | O=C(O)c1cc(O)c(O)c(O)c1 [NC-041] | 148.8
49 | O=c1c(-c2ccc(O)cc2)coc2cc(O)cc(O)c12 [NC-042] | 45.6
50 | C[C@]12CC[C@H](O)C[C@H]1CC[C@@H]1[C@@H]2CC[C@]2(C)[C@@H](C3=CC(=O)OC3)[C@@H](O)C[C@]12O [NC-043] | 102.7
51 | O=c1c(O)c(-c2ccc(O)c(O)c2)oc2c(O[C@@H]3O[C@H](CO)[C@@H](O)[C@H](O)[C@H]3O)c(O)cc(O)c12 [NC-044] | 105.8
52 | O=C(OC[C@H]1OC(O)[C@@](O)(COC(=O)c2cc(O)c(O)c(O)c2)[C@@H]1O)c1cc(O)c(O)c(O)c1 (stereo partly shown) [NC-045] | 14.7
53 | COc1ccc([C@@H]2CC(=O)c3c(O)cc(O[C@@H]4O[C@H](CO[C@@H]5O[C@@H](C)[C@H](O)[C@@H](O)[C@H]5O)[C@@H](O)[C@H](O)[C@H]4O)cc3O2)cc1O [NC-046] | 77.7
54 | O=C(CO)c1ccccc1 [NC-047] | 129.7
55 | CC(=O)c1cccc(O)c1 [NC-048] | 125.8
56 | CC(=O)c1ccc(O)cc1 [NC-049] | 29.4
57 | O=C(O)Cc1ccccc1O [NC-050] | 7.3

Row | Structure (SMILES) | SFV replication % left [%]
58 | O=C(O)Cc1cccc(O)c1 [NC-051] | 110.8
59 | O=C(O)Cc1ccc(O)cc1 [NC-052] | 103.6
60 | Oc1ccc(O)cc1 [NC-053] | 16.9
61 | CC(C)OC(=O)c1cc(O)c(O)c(O)c1 [NC-054] | 124.0
62 | O=C(O)c1ccc(O)cc1O [NC-055] | 32.1
63 | COc1cc(-c2oc3cc(O)cc(O)c3c(=O)c2O)ccc1O [NC-056] | 28.9
64 | O=c1c(O)c(-c2ccc(O)cc2)oc2cc(O)cc(O)c12 [NC-057] | 2.9
65 | COc1c2occc2c(OC)c2c(=O)cc(C)oc12 [NC-058] | 120.6
66 | CCCCCCCCCCCCOC(=O)c1cc(O)c(O)c(O)c1 [NC-059] | 12.3
67 | Oc1cc(O)c2c(c1)OC(c1ccc(O)c(O)c1)C(O)C2O (stereo not shown) [NC-060] | 136.3
68 | O=c1cc(-c2ccc(O)c(O)c2)oc2cc(O)cc(O)c12 [NC-061] | 71.3
69 | O=c1cc(-c2ccc(O)c(O)c2)oc2cc(O[C@@H]3O[C@H](CO)[C@@H](O)[C@H](O)[C@H]3O)cc(O)c12 [NC-062] | 17.8
70 | COc1cc(-c2[o+]c3cc(O)cc(O[C@@H]4O[C@H](CO)[C@@H](O)[C@H](O)[C@H]4O)c3cc2O[C@@H]2O[C@H](CO)[C@@H](O)[C@H](O)[C@H]2O)cc(OC)c1O.[Cl-] [NC-063] | 15.4
71 | COC(=O)c1cc(O)c(O)c(O)c1 [NC-064] | 67.8
72 | Cc1cc(=O)oc2cc(O)ccc12 [NC-065] | 12.0
73 | CCN(CC)CCCC(C)Nc1cc(/C=C/c2ccccc2Cl)nc2cc(Cl)ccc12 (stereo not shown) [NC-066] | 45.8
74 | O.O.O=c1c(O)c(-c2ccc(O)cc2O)oc2cc(O)cc(O)c12 [NC-067] | 82.9
75 | O=c1c(O)c(-c2cc(O)c(O)c(O)c2)oc2cc(O)cc(O)c12 [NC-068] | 2.0
76 | O=C1C[C@@H](c2ccc(O)cc2)Oc2cc(O)cc(O)c21 [NC-069] | -0.0736
77 | Cc1ccc(O)c(O)c1 [NC-070] | 111.1
78 | CC(Cc1ccc(O)c(O)c1)C(C)Cc1ccc(O)c(O)c1 (stereo not shown) [NC-071] | 35.6
79 | CCCCCCCCOC(=O)c1cc(O)c(O)c(O)c1 [NC-072] | 134.4
80 | O=C(O)c1ccccc1C(=O)O [NC-073] | 143.7

Row | Structure (SMILES) | SFV replication % left [%]
81 | Oc1cc(O)c2c(c1)O[C@H](c1ccc(O)c(O)c1)[C@H](O)[C@H]2c1c(O)cc(O)c2c1O[C@H](c1ccc(O)c(O)c1)[C@@H](O)C2 [NC-074] | 128.1
82 | Oc1cc(O)c2c(c1)O[C@H](c1ccc(O)c(O)c1)[C@H](O)[C@H]2c1c(O)cc(O)c2c1O[C@H](c1ccc(O)c(O)c1)[C@H](O)C2 [NC-075] | 93.7
83 | CCCOC(=O)c1cc(O)c(O)c(O)c1 [NC-076] | 33.6
84 | O=C(O)c1ccc(O)c(O)c1 [NC-077] | 21.1
85 | Oc1cccc(O)c1O [NC-078] | 22.7
86 | O=c1c(O)c(-c2ccc(O)c(O)c2)oc2cc(O)c(O)c(O)c12 [NC-079] | 90.2
87 | O=c1c(O)c(-c2ccc(O)c(O)c2)oc2cc(O)cc(O)c12 [NC-080] | 125.8
88 | COc1cc(O)c2c(=O)c(OC)c(-c3ccc(OC)c(OC)c3)oc2c1 [NC-081] | 65.0
89 | C[C@@H]1O[C@@H](Oc2c(-c3ccc(O)c(O)c3)oc3cc(O)cc(O)c3c2=O)[C@H](O)[C@H](O)[C@H]1O.O.O [NC-083] | 11.4
90 | O=C(O)[C@]1(O)C[C@@H](O)[C@@H](O)[C@H](O)C1 [NC-084] | 98.2
91 | Oc1cccc(O)c1 [NC-085] | 83.0
92 | Oc1ccc(C=Cc2cc(O)cc(O)c2)cc1 [NC-086] | 103.4
93 | COc1cc(O)c2c(=O)c(O)c(-c3ccc(O)c(O)c3)oc2c1 [NC-087] | 119.1
94 | O=C(/C=C/c1ccc(O)c(O)c1)O[C@H](Cc1ccc(O)c(O)c1)C(=O)O [NC-088] | 120.3
95 | C[C@@H]1O[C@@H](OC[C@H]2O[C@@H](Oc3c(-c4ccc(O)c(O)c4)oc4cc(O)cc(O)c4c3=O)[C@H](O)[C@@H](O)[C@@H]2O)[C@H](O)[C@H](O)[C@H]1O [NC-090] | 44.1
96 | OCc1ccccc1O[C@@H]1O[C@H](CO)[C@@H](O)[C@H](O)[C@H]1O [NC-091] | 104.4
97 | O=C(O)c1ccccc1O [NC-092] | 69.1
98 | COc1cc(C2Oc3cc([C@H]4Oc5cc(O)cc(O)c5C(=O)[C@@H]4O)ccc3OC2CO)ccc1O (stereo partly shown) [NC-093] | 22.4
99 | COc1cc(/C=C/C(=O)O)cc(OC)c1O [NC-095] | 22.0
100 | C=CCC(=NOS(=O)(=O)[O-])SC1OC(CO)C(O)C(O)C1O.O.[K+] (stereo not shown) [NC-096] | 47.6
